According to the OligoGym collection:
Several values for one entry are separate records, joined by “and”; a condition that tells them apart may be missing. Equal values may be shown once. After the bases stand the sugars from the 5' end (letter, count) and the backbone: PS all phosphorothioate, else s phosphorothioate and o phosphodiester by linkage. HELM strings list units from the 5' end as sugar, base in round brackets, then linkage (d deoxyribose, r ribose, m 2'-O-methyl, p phosphodiester). Methylation of C is not given here. [moe] = 2'-O-(2-methoxyethyl) (MOE); [cEt] = constrained ethyl (cEt); [sp] = phosphorothioate linkage; e = 2'-O-(2-methoxyethyl) (MOE); k = constrained ethyl (cEt); d = 2'-deoxy (DNA)

Tests used:
KRAS = conditions: ASO
HBV = conditions: ASO, HepG2, 0.07 µM

Substance | target mRNA inhibition (KRAS; A431, 2 µM) [%] | other results
ATTACTTTTTGACAAA (sugars k3 d10 k3, PS) | 0 | 
ATTAGTGATTAGGTCA (sugars k3 d10 k3, PS) | 55 | target mRNA inhibition (KRAS; A431, 0.185 µM): 2% and 25%; target mRNA inhibition (KRAS; A431, 0.556 µM): 37%; target mRNA inhibition (KRAS; A431, 1.667 µM): 47%; target mRNA inhibition (KRAS; A431, 5 µM): 71%
ATTGTGCTGAGCTTGA (sugars kdddddddddkekeke, PS) | 18 | 
CAAGATGACACTAATA (sugars k3 d10 k3, PS) | 18 | 
CACTTCATTGTTTAAA (sugars k3 d10 k3, PS) | 12 | 
CAGACTTGAAAAGTGT (sugars k3 d10 k3, PS) | 24 | 
CAGTGTGACTCAGTTA (sugars kkddddddddddkeke, PS) | 51 | 
CAGTGTTAAGAGAACT (sugars kdddddddddkekeke, PS) | 40 | 
CATGCTGTGAAACTCT (sugars k3 d10 k3, PS) | 8 | 
CATTTCTGATGTGACT (sugars k3 d10 k3, PS) | 32 | 
CCAGTGATACTTTCAC (sugars kkddddddddkekekk, PS) | 17 | 
CCAGTGTTAAGAGAAC (sugars kkddddddddddkeke, PS) | 42 | 
CCATGCTGTGAAACTC (sugars k3 d10 k3, PS) | 26 | 
CCATTCAAAGTTCACA (sugars k3 d9 k3 e1, PS) | 41 | 
CCATTCAAAGTTCACA (sugars k3 d10 k3, PS) | 42 | 
CCATTTATGTGACTAG (sugars kkddddddddkekekk, PS) | 0 | 
CCATTTATGTGACTAG (sugars kkkddddddddkekek, PS) | 36 | 
CTATTAGGAGTCTTTA (sugars k3 d10 k3, PS) | 34 | 
CTCTATGAAAGCTCAA (sugars k3 d10 k3, PS) | 39 | 
CTTGAAAAGTGTTTAT (sugars k3 d10 k3, PS) | 0 | 

Substance | target mRNA inhibition (KRAS; A431, 2 µM) [%] | other results
CTTGATTTGTCAGCAG (sugars kkkddddddddkdkdk, PS) | 33 | 
CTTTTTGACAAATGGA (sugars k3 d10 k3, PS) | 22 | 
GATGGTGTAACATAGG (sugars k3 d10 k3, PS) | 60 | target mRNA inhibition (KRAS; A431, 0.185 µM): 8%; target mRNA inhibition (KRAS; A431, 0.556 µM): 30%; target mRNA inhibition (KRAS; A431, 1.667 µM): 56%; target mRNA inhibition (KRAS; A431, 5 µM): 68%
GATTGTGCTGAGCTTG (sugars kkdddddddddkekek, PS) | 45 | 
GATTGTGCTGAGCTTG (sugars kkddddddddkekekk, PS) | 14 | 
GATTTGTCAGCAGGAC (sugars kkddddddddkekekk, PS) | 0 | 
GCTCTTGATTTGTCAG (sugars k3 d10 k3, PS) | 23 | 
GGAGTCTTTATAGTAA (sugars kkddddddddddkeke, PS) | 55 | target mRNA inhibition (KRAS; A431, 0.185 µM): 27%; target mRNA inhibition (KRAS; A431, 0.556 µM): 45%; target mRNA inhibition (KRAS; A431, 1.667 µM): 57%; target mRNA inhibition (KRAS; A431, 5 µM): 82%
GGAGTCTTTATAGTAA (sugars kkddddddddkekekk, PS) | 25 | 
GGCAAGATGACACTAA (sugars k3 d10 k3, PS) | 30 | 
GGGAATTACAAGTATT (sugars k3 d10 k3, PS) | 28 | 
GGTAAAAGCTAACAGT (sugars k3 d10 k3, PS) | 49 | 
RNA1{[moe](T)[sp].[moe](G)[sp].[moe](A)[sp].d(G)[sp].d(G)[sp].d(C)[sp].d(A)[sp].d(T)[sp].d(A)[sp].d(G)[sp].d(C)[sp].d(A)[sp].d(G)[sp].[cEt](C)[sp].[cEt](A)[sp].[cEt](G)}$$$$V2.0 |  | target mRNA inhibition (HBV): 59% and 61%
RNA1{[moe](T)[sp].[moe](G)[sp].[moe](C)[sp].[moe](A)[sp].[moe](G)[sp].d(A)[sp].d(G)[sp].d(G)[sp].d(T)[sp].d(G)[sp].d(A)[sp].d(A)[sp].d(G)[sp].d(C)[sp].[moe](G)[sp].[moe](A)[sp].[moe](A)}$$$$V2.0 |  | target mRNA inhibition (HBV): 55% and 56%
RNA1{[moe](T)[sp].[moe](G)[sp].[moe](C)[sp].[moe](A)[sp].d(G)[sp].d(A)[sp].d(G)[sp].d(G)[sp].d(T)[sp].d(G)[sp].d(A)[sp].d(A)[sp].d(G)[sp].[moe](C)[sp].[moe](G)[sp].[moe](A)[sp].[moe](A)}$$$$V2.0 |  | target mRNA inhibition (HBV): 68% and 58%
RNA1{[moe](T)[sp].[moe](G)[sp].[moe](C)[sp].[moe](A)[sp].d(G)[sp].d(A)[sp].d(G)[sp].d(G)[sp].d(T)[sp].d(G)[sp].d(A)[sp].d(A)[sp].d(G)[sp].[moe](C)[sp].[moe](G)[sp].[moe](A)}$$$$V2.0 |  | target mRNA inhibition (HBV): 60% and 68%
RNA1{[moe](T)[sp].[moe](G)[sp].d(A)[sp].d(G)[sp].d(G)[sp].d(C)[sp].d(A)[sp].d(T)[sp].d(A)[sp].d(G)[sp].d(C)[sp].[moe](A)[sp].[moe](G)[sp].[moe](C)[sp].[moe](A)[sp].[moe](G)[sp].[moe](G)}$$$$V2.0 |  | target mRNA inhibition (HBV): 73% and 72%
RNA1{[moe](T)[sp].[moe](T)[sp].[moe](C)[sp].[moe](C)[sp].[moe](G)[sp].d(C)[sp].d(A)[sp].d(G)[sp].d(T)[sp].d(A)[sp].d(T)[sp].d(G)[sp].d(G)[sp].d(A)[sp].[moe](T)[sp].[moe](C)}$$$$V2.0 |  | target mRNA inhibition (HBV): 59% and 58%
RNA1{[moe](T)[sp].[moe](T)[sp].[moe](T)[sp].[moe](A)[sp].[moe](T)[sp].d(G)[sp].d(C)[sp].d(C)[sp].d(T)[sp].d(A)[sp].d(C)[sp].d(A)[sp].d(G)[sp].d(C)[sp].[moe](C)[sp].[moe](T)}$$$$V2.0 |  | target mRNA inhibition (HBV): 53% and 37%
RNA1{[moe](T)[sp].[moe](T)[sp].[moe](T)[sp].d(A)[sp].d(T)[sp].d(G)[sp].d(C)[sp].d(C)[sp].d(T)[sp].d(A)[sp].d(C)[sp].d(A)[sp].[moe](G)[sp].[moe](C)[sp].[moe](C)[sp].[moe](T)}$$$$V2.0 |  | target mRNA inhibition (HBV): 51% and 38%
